Data reported in US8481531B2, “Bicyclic heterocyclyl derivatives as FGFR kinase inhibitors for therapeutic use” (Astex Therapeutics Ltd, priority 2009, dated 2013).

Key:
Ba/F3-TEL-FGFR3 cells = target: T1, Ba/F3-TEL-FGFR3 cells (Homo sapiens, UniProt P22607); assay: Ba/F3-TEL-FGFR3 cell proliferation assay (Alamar Blue); type: cell-based; conditions: 72 hours; for GI50: read-out: BaF3-TEL-FGFR3 prolif
T1 construct: fused on or other part: P41212 (Transcription factor ETV6)
Protocol: (§1) Ba/F3-TEL-FGFR3 & Ba/F3 (WT) Cell Proliferation Assays
(§2) Stably transfected Ba/F3-TEL-FGFR3 cells were plated out into black 96-well tissue culture plates with clear bottoms in RPMI medium containing 10% FBS and 0.25 mg/ml G418 at a density of 5×10^3 cells/well (200 μl per well). The parental wild-type Ba/F3 cells (DSMZ no.: ACC 300) were plated out into black 96-well tissue culture plates with clear bottoms in RPMI medium containing 10% FBS and 2 ng/ml mouse IL-3 (R&D Systems) at a density of 2.5×10^3 cells/well (200 μl per well). Plates were placed in an incubator overnight before adding the compounds the following day. Dilutions of compounds were made in DMSO starting at 10 mM and were diluted into the wells to give a final DMSO concentration of 0.1% in assay. Compounds were left on the cells for 72 hours before the plates were removed from the incubator and 20 μl of Alamar Blue™ (Biosource) was added to each well. Plates were placed in the incubator for 4-6 hours before reading plates at 535 nm (excitation)/590 nm (emission) on a Fusion plate reader (Packard). Where inhibition is high an IC50 can be determined.

FGFR3 = target: T2, FGFR3 (Homo sapiens, UniProt P22607); assay: FGFR3 in vitro kinase inhibitory activity assay (TRF); type: biochemical; conditions: 8 μM ATP, 3 hours; read-out: FGFR3 IC50(μM) or % I
T2 construct: purchased Upstate
T2 sequence (P22607 23-806): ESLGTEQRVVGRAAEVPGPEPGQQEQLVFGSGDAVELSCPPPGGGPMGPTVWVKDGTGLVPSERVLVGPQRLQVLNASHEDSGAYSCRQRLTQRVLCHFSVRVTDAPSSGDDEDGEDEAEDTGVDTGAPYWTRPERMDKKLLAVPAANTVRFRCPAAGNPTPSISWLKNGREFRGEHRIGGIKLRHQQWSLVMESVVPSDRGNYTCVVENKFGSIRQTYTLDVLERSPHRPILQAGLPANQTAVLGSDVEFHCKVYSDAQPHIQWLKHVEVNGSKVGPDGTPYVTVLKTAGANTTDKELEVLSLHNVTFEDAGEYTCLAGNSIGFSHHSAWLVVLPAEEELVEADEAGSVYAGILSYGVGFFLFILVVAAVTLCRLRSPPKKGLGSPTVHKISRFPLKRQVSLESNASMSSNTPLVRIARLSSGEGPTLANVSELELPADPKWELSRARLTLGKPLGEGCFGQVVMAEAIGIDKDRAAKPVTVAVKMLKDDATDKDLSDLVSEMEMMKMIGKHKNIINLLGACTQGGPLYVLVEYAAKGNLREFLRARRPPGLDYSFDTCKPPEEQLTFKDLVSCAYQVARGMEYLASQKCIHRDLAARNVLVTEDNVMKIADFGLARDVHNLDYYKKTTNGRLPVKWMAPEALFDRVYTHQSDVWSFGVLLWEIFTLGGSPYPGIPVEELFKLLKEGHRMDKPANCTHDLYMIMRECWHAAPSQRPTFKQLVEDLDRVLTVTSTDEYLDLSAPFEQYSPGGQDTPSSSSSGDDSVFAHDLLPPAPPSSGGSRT
Protocol: (§3) FGFR3, VEGFR2 and PDGFR in vitro Kinase Inhibitory Activity Assays
(§4) Enzymes (from Upstate), prepared at 2× final concentration, were incubated with test compounds, biotinylated Flt3 substrate (biotin-VASSDNEYFYVDF) (Cell Signalling Technology Inc.) and ATP in the appropriate assay buffer (Table 1). The reaction was allowed to proceed for 3 hours (FGFR3), 1 hour (VEGFR2, PDGFR-beta) at room temperature on a plate shaker at 700 rpm before being stopped with 35 mM EDTA, pH 8 (FGFR3, VEGFR2) or 55 mM EDTA, pH 8 (PDGFR-beta). 5× detection mix (50 mM HEPES pH 7.5, 0.1% BSA, 11.34 nM Eu-anti-pY (PY20) (PerkinElmer) 74 nM SA-XL665 (Cisbio) for FGFR3, 50 mM HEPES, pH 7.5, 0.1% BSA, 11.34 nM Eu-anti-pY (PY20), 187.5 nM SA-XL665 for VEGFR2 and 50 mM HEPES, pH 7.5, 0.1% BSA, 11.34 nM Eu-anti-pY (PT66) (PerkinElmer), 375 nM SA-XL665 (Cisbio) for PDGFR-beta) was then added to each well and the plate sealed and incubated at room temperature for one hour on a plate shaker at 700 rpm. The plate was then read on a Packard Fusion plate reader or a BMG Pherastar both in TRF mode.

VEGFR2 = target: T3, VEGFR2 (Homo sapiens, UniProt P35968); assay: VEGFR2 in vitro kinase inhibitory activity assay (TRF); type: biochemical; conditions: 0.5 μM ATP, 1 hour; read-out: VEGFR2 IC50(μM) or % I
T3 construct: purchased Upstate
T3 sequence (P35968 20-1356): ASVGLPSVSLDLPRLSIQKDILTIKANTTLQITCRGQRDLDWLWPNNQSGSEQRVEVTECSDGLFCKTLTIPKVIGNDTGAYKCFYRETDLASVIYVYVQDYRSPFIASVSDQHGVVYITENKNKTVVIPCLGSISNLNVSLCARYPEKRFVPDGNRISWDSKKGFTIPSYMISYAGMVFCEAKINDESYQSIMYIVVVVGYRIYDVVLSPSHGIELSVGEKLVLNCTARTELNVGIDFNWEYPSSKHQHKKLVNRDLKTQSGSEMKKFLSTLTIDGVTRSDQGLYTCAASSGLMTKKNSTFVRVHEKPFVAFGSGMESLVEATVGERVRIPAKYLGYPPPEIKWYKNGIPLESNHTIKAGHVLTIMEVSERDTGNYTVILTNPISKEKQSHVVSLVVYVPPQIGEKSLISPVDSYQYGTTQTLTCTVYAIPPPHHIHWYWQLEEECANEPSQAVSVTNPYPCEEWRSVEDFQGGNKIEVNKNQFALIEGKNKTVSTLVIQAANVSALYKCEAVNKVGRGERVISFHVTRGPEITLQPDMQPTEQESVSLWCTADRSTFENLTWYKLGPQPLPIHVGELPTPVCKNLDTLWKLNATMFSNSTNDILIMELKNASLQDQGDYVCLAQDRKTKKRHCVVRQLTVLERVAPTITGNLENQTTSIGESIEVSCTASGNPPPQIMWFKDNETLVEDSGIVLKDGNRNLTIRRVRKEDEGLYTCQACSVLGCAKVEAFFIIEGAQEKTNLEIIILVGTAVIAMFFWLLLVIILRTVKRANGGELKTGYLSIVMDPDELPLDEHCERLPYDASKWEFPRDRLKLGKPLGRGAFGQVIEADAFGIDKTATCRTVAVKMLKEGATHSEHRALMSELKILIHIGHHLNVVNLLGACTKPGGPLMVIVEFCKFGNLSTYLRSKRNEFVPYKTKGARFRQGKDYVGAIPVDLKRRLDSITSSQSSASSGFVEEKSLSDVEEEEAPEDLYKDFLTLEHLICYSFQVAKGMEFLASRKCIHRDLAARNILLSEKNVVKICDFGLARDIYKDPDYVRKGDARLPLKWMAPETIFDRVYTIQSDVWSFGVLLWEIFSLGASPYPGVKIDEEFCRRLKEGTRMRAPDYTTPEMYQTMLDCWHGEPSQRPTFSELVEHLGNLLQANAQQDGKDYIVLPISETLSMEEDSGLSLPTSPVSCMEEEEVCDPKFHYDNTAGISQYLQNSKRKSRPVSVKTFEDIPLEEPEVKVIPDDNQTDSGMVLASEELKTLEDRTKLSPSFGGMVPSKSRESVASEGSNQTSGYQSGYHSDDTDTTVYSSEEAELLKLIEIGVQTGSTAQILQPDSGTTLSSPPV
Protocol: as §3, §4

[1] = system: parental wild-type Ba/F3 cells; assay: Ba/F3 (WT) cell proliferation assay (Alamar Blue); type: cell-based; conditions: BaF3, 72 hours, read-out: BaF3 WT prolif; for IC50: with mouse IL-3
Protocol: as §1, §2

T1 sequence (P22607 whole entry, change not shown, the tested form may be a part): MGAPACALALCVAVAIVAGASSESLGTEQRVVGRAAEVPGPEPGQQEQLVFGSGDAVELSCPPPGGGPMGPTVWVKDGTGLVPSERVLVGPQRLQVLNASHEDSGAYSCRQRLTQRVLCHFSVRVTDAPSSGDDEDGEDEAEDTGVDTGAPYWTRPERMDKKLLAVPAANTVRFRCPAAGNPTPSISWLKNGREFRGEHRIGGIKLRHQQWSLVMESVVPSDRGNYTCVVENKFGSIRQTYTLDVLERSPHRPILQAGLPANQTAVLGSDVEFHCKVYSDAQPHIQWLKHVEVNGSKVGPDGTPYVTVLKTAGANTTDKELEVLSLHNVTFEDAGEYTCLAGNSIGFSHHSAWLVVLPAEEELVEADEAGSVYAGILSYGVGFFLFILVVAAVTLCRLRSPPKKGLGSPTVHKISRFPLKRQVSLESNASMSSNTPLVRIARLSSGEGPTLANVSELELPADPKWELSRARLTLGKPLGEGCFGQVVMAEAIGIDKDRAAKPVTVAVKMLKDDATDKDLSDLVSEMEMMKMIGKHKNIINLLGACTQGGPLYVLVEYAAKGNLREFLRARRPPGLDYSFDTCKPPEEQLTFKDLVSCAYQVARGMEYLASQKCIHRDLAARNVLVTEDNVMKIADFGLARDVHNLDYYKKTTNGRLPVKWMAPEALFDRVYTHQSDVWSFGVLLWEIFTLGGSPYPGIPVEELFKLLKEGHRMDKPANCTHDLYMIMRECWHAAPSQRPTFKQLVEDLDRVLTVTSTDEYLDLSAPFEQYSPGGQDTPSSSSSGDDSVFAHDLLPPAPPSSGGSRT

SMILES: CON=C(CC1CC1)c1ccn2c(-c3cccc(NC(=O)NCC(F)(F)F)c3)cnc2c1 [Compound 1-29, 1-[3-(7-{2-Cyclopropyl-1-methoxyimino-ethyl}-imidazo[1,2-a]pyridin-3-yl)-phenyl]-3-(2,2,2-trifluoro-ethyl)-urea]
- BaF3-TEL-FGFR3 prolif (μM) (Ba/F3-TEL-FGFR3 cells; % at 10.0 μM): 28.0% at
- IC50 (FGFR3): 0.059 µM
- IC50 (VEGFR2): > 1 µM
- inhibition at 10 µM ([1]; Mus musculus): 16%

SMILES: CN(C)S(=O)(=O)N1CCN(CCCO/N=C/c2ccn3c(-c4cccc(NC(=O)NCC(F)(F)F)c4)cnc3c2)CC1 [Compound 1-63, 4-{3-[1-(3-{3-[3-(2,2,2-Trifluoro-ethyl)-ureido]-phenyl}-imidazo[1,2-a]pyridin-7-yl)-meth-(E)-ylideneaminooxy]-propyl}-piperazine-1-sulfonic acid dimethylamide]
- GI50 (Ba/F3-TEL-FGFR3 cells): 310 nM
- IC50 (FGFR3): 0.016 µM
- IC50 (VEGFR2): 0.5 µM
- inhibition at 3 µM ([1]; Mus musculus, % at 3.00 μM): 45%

SMILES: O=C(NCC(F)(F)F)Nc1cccc(-c2cnc3cc(C=NOCCCNC4CCOCC4)ccn23)c1 [Compound 1-37, 1-[3-(7-{[3-(Tetrahydro-pyran-4-ylamino)-propoxyimino]-methyl}-imidazo[1,2-a]pyridin-3-yl)-phenyl]-3-(2,2,2-trifluoro-ethyl)-urea]
- GI50 (Ba/F3-TEL-FGFR3 cells): 3500 nM
- IC50 (FGFR3): 0.028 µM
- IC50 (VEGFR2): 0.27 µM
- inhibition at 10 µM ([1]; Mus musculus): 43%

SMILES: O=C(NCC(F)(F)F)Nc1cccc(-c2cnc3cc(C=NOCCO)ccn23)c1 [Compound 1-54, 1-(3-{7-[(2-Hydroxy-ethoxyimino)-methyl]-imidazo[1,2-a]pyridin-3-yl}-phenyl)-3-(2,2,2-trifluoro-ethyl)-urea]
- GI50 (Ba/F3-TEL-FGFR3 cells): 500 nM
- IC50 (FGFR3): 0.021 µM
- IC50 (VEGFR2): 0.62 µM
- IC50 [1]: 510 nM

SMILES: COCCON=Cc1ccn2c(-c3cccc(NC(=O)NCC(F)(F)F)c3)cnc2c1 [Compound 1-1, 1-(3-{7-[(2-Methoxy-ethoxyimino)-methyl]-imidazo[1,2-a]pyridin-3-yl}-phenyl)-3-(2,2,2-trifluoro-ethyl)-urea]
- GI50 (Ba/F3-TEL-FGFR3 cells): 210 nM
- IC50 (FGFR3): 0.0194 µM
- IC50 (VEGFR2): 0.635 µM
- IC50 [1]: 310 nM

SMILES: Cc1cc(CON=Cc2ccn3c(-c4cccc(NC(=O)NCC(F)(F)F)c4)cnc3c2)n(C)n1 [Compound 1-13, 1-(3-{7-[(2,5-Dimethyl-2H-pyrazol-3-ylmethoxyimino)-methyl]-imidazo[1,2-a]pyridin-3-yl}-phenyl)-3-(2,2,2-trifluoro-ethyl)-urea]
- GI50 (Ba/F3-TEL-FGFR3 cells): 300 nM
- IC50 (FGFR3): 0.03 µM
- IC50 (VEGFR2): 0.66 µM
- inhibition at 1 µM ([1]; Mus musculus, % at 1.00 μM): 46%

SMILES: O=C(NCC(F)(F)F)Nc1cccc(-c2cnc3cc(C=NOCc4ccco4)ccn23)c1 [Compound 1-15, 1-(3-{7-[(Furan-2-ylmethoxyimino)-methyl]-imidazo[1,2-a]pyridin-3-yl}-phenyl)-3-(2,2,2-trifluoro-ethyl)-urea]
- GI50 (Ba/F3-TEL-FGFR3 cells): 43 nM
- IC50 (FGFR3): 0.026 µM
- IC50 (VEGFR2): 0.98 µM
- IC50 [1]: 4600 nM

SMILES: CN(CCO)CCON=Cc1ccn2c(-c3cccc(NC(=O)NCC(F)(F)F)c3)cnc2c1 [Compound 1-58, 1-{3-[7-({2-[(2-Hydroxy-ethyl)-methyl-amino]-ethoxyimino}-methyl)-imidazo[1,2-a]pyridin-3-yl]-phenyl}-3-(2,2,2-trifluoro-ethyl)-urea]
- GI50 (Ba/F3-TEL-FGFR3 cells): 780 nM
- IC50 (FGFR3): 0.029 µM
- IC50 (VEGFR2): 0.34 µM
- inhibition at 10 µM ([1]; Mus musculus): 55%

SMILES: CN1CCC(ON=Cc2ccn3c(-c4cccc(NC(=O)NCC(F)(F)F)c4)cnc3c2)CC1 [Compound 1-10, 1-(3-{7-[(1-Methyl-piperidin-4-yloxyimino)-methyl]-imidazo[1,2-a]pyridin-3-yl}-phenyl)-3-(2,2,2-trifluoro-ethyl)-urea]
- GI50 (Ba/F3-TEL-FGFR3 cells): 140 nM
- IC50 (FGFR3): 0.019 µM
- IC50 (VEGFR2): 0.27 µM
- IC50 [1]: 2800 nM

SMILES: COCCO/N=C(\C)c1ccn2c(-c3cccc(NC(=O)NCC(F)(F)F)c3)cnc2c1 [Compound 1-45, 1-[3-(7-{1-[2-Methoxy-ethoxyimino]-ethyl}-imidazo[1,2-a]pyridin-3-yl)-phenyl]-3-(2,2,2-trifluoro-ethyl)-urea]
- GI50 (Ba/F3-TEL-FGFR3 cells): 48 nM
- IC50 (FGFR3): 0.0041 µM
- IC50 (VEGFR2): 0.068 µM
- IC50 [1]: 4000 nM
